Experimental data from patent US20220378821A1, “METHODS OF TREATING BRAF-MUTATED CANCER CELLS” (EFFECTOR THERAPEUTICS, INC., priority 2019, published 2022).
Like-named read-outs stand apart in the source and are kept apart here.

Experiments:
[1] = test system: panel of 100 tumor cell lines; assay: OncoPanel cell proliferation profiling (nuclear dye relative cell count); format: cell-based; conditions: for IC50: across the panel of 100 cell lines
Protocol: (§1) In order to assess cellular phenotypes arising from eIF4E inhibition, Compound X was profiled in a panel of 100 tumor cell lines. Compound X was profiled using the OncoPanel Cell-Based Profiling Service (Eurofins Pharma Discovery Services, St. Charles, Mo.). Briefly, cell lines used in the panel were grown in RPMI 1640, 10% FBS, 2 mM L-alanyl-L-glutamine, 1 mM Na pyruvate, or a special medium. Cells were seeded into 384-well plates and incubated in a humidified atmosphere of 5% CO2 at 37° C. Compounds were added the day following cell seeding. At the same time, a time zero untreated cell plate was generated. After a 3-day incubation period, cells were fixed and stained with fluorescently-labeled antibodies and nuclear dye to allow imaging of nuclei, apoptotic cells and mitotic cells.
(§2) was serially diluted in half-log steps from 10 μM and assayed over 10 concentrations with a maximum assay concentration of 0.1% DMSO. Automated fluorescence microscopy was carried out using a Molecular Devices ImageXpress Micro XL high-content imager, and images were collected with a 4× objective. 16-bit TIFF images were acquired and analyzed with MetaXpress 5.1.0.41 software.
Cell proliferation was measured by the fluorescence intensity of an incorporated nuclear dye. The output is referred to as the relative cell count, where the measured nuclear intensity is transformed to percent of control (POC) using the following formula: […]
where Ix the nuclear intensity at concentration x, and I0 is the average nuclear intensity of the untreated vehicle wells.
Cellular response parameters were calculated using nonlinear regression to a sigmoidal single-site dose response model:
where y is a response measured at concentration x, A and B are the lower and upper limits of the response, C is the concentration at the response midpoint (EC50), and D is the Hill Slope (Fallahi-Sichani et al., 2013, Nat. Chem. Biol. 9:708-714).
Cell count IC50 is the test compound concentration at 50% of maximal possible response.

[2] = test system: panel of 100 tumor cell lines; assay: OncoPanel apoptosis profiling (activated caspase-3); format: cell-based
Protocol: as §1, §2
An antibody to activated caspase-3 was used to label cells from early to late stage apoptosis (Thornberry et al., 1998, Science 281:1312-1316). […] A 5-fold induction in the caspase-3 signal was scored as a significant apoptosis induction.

[3] = test system: RKO xenografts (BRAF mutant); assay: In vivo tumor growth inhibition, RKO xenografts
Protocol: (§3) Athymic nude mice were purchased from Simonsen Laboratories (Gilroy, Calif.). C.B-17 SCID mice were purchased from Charles River (Hollister, Calif.). All animal studies were carried out in accordance with the guidelines established by the Institutional Animal Care and Use Committee at Explora BioLabs (San Diego, Calif.). COLO 205 and RKO cells were purchased from ATCC (Manassas, Va.). COLO 205 cells were maintained in RPMI-1640 supplemented with 10% fetal bovine serum. RKO cells were maintained in DMEM supplemented with 10% fetal bovine serum. For COLO 205 xenograft studies, COLO 205 (2×10^6) cells were implanted subcutaneously into athymic nude mice. On day 8 post-implant, tumors were measured (˜103 mm^3) and tumor-bearing animals were randomized into treatment groups. For RKO xenograft studies, RKO cells (5×10^6) were implanted subcutaneously into C.B-17 SCID mice. On day 11 post-implant, tumors were measured (˜153 mm^3) and tumor-bearing animals were randomized into treatment groups. Animals were dosed orally with vehicle or Compound Y daily. Tumor size and body weight were monitored during the course of the study. Tumor size was measured in length and width with a caliper 2× per week. The tumor volume was calculated by the formula L×W×W/2 according to NCI standards.

[4] = test system: COLO 205 xenografts (BRAF mutant); assay: In vivo tumor growth inhibition, COLO 205 xenografts; conditions: for tumor growth inhibition (TGI): COLO 205 xenografts
Protocol: To test whether eIF4E inhibition affected the growth of BRAF mutant tumors in vivo, COLO 205 cells were grown as tumor xenografts in athymic nude mice and animals were dosed daily with vehicle or Compound Y, having the following structure
as §3

Row | IC50 ([1]; 72 h, 3-day incubation, read-out: median IC50 value for cell proliferation) | IC50 ([1]; upper end printed as >10,000 nM, read-out: distribution of IC50 values for cell proliferation) | cell lines tested with IC50 values below the median ([1]; hematological, head and neck, NSCLC, melanoma, uterine and pancreatic tumor cell lines) | Compound | BRAF mutant cell lines among those with significant induction of apoptosis ([2]; of the 36 cell lines with >5-fold activated caspase-3) | cell lines that showed significant induction of apoptosis (>5-fold induction of activated caspase-3) ([2]; of the panel of 100 cell lines) | tolerability (body weight) ([3]; RKO study, no significant changes in body weight) | tumor growth inhibition (TGI) ([3]; RKO xenografts, 30 mg/kg orally daily) | tolerability (body weight) ([4]; COLO 205 study, no significant changes in body weight) | tumor growth inhibition (TGI) ([4]; 3 mg/kg orally daily) | tumor growth inhibition (TGI) ([4]; 30 mg/kg orally daily)
1 | 116 nM | 12 to 10000 nM | > 74% | Cc1cc(-c2cc(Cl)ccc2OCCn2c(C)nc3cc(C(F)(F)F)c(CN4CCN(C)CC4)c(C#N)c3c2=O)c2scc(C(=O)O)c2n1 [Compound X] | 10 | 36 |  |  |  |  | 
2 |  |  |  | Cc1cc(-c2cc(Cl)ccc2OCCn2c(C)nc3cc(C(F)(F)F)c(N4CCN(C)CC4)c(C#N)c3c2=O)c2scc(C(=O)O)c2n1 [Compound Y] |  |  | well tolerated | 54% | well tolerated | 49% | 89%
